From patent US20230142274A1 (SIMCERE PHARMACEUTICAL CO., LTD., priority 2020, published 2023)

Assays:
[1] = test system: CD-1 mouse plasma; assay: Plasma protein binding rate assay (equilibrium dialysis); assay type: in vitro ADME; settings: compound 1 μM, equilibrium dialysis 6 hours at 37° C.
Method: 1. CD-1 mouse plasma (BioIVT)
1. Formulation of a buffer solution containing 100 mM sodium phosphate and 150 mM NaCl: An alkaline solution containing Na2HPO4 (14.2 g/L) and NaCl (8.77 g/L) was formulated with ultrapure water. An acidic solution containing NaH2PO4 (12.0 g/L) and NaCl (8.77 g/L) was formulated with ultrapure water. The alkaline solution was titrated with the acidic solution until the pH value was 7.4, thus formulating the buffer solution containing 100 mM sodium phosphate and 150 mM NaCl.
2. Preparation of dialysis membrane: The dialysis membrane was immersed in ultrapure water for 60 minutes to separate the membrane into two pieces, then immersed in 20% ethanol for 20 minutes, and finally immersed in a buffer for dialysis for 20 minutes.
3. Preparation of plasma: Frozen plasma was thawed rapidly at room temperature. Thereafter, the plasma was centrifuged at 3220 g for 10 minutes at 4° C. to remove clots, and the supernatant was collected into a new centrifuge tube. The pH values of plasma were measured and recorded. The plasma with a pH value of 7 to 8 was used.
4. Formulation of compound-containing plasma samples: A 10 mM stock solution of the compound of the present disclosure or the positive control compound was diluted with DMSO to obtain a 200 μM working solution. 3 μl of the 200 μM working solution of the compound was added into 597 μl of mouse plasma to obtain a plasma sample with a final concentration of 1 μM.
5. Steps of equilibrium dialysis: The dialysis device was assembled according to the operating instructions. 120 μL of a plasma sample containing 1 μM compound was added on one side of the dialysis membrane, and an equal volume of dialysate (phosphate buffer solution) was added on the other side. Duplicate samples were set in the experiment. The dialysis plate was sealed and placed in an incubation device where the samples were incubated at 37° C. in an atmosphere containing 5% CO2 for 6 hours with a rotational speed of about 100 rpm. After the incubation was complete, the sealing membrane was removed. 50 μl of samples were respectively aspirated from the buffer solution side and the plasma side of each well and transferred into different wells of a new plate. 50 μl of blank plasma was added into the sample obtained from the phosphate buffer solution side, and an equal volume of blank phosphate buffer solution was added into the plasma sample, followed by the addition of 300 μl of acetonitrile containing the internal standard to precipitate protein. The sample was vortexed for 5 minutes and centrifuged at 3220 g for 30 minutes at 4° C. 100 μl of the supernatant was aspirated and transferred to the sample plate, mixed well with 100 μL of ultrapure water, and used for LC-MS/MS analysis.
The peak areas of the compounds on the buffer solution side and the plasma side were determined. The formula for calculating the plasma protein binding rate of the compound was as follows:
% Free rate=(the ratio of the peak area of the compound to the peak area of the internal standard on the buffer solution side/the ratio of the peak area of the compound to the peak area of the internal standard on the plasma side)×100
% Binding rate=100−% free rate

[2] = Metabolic stability in liver microsomes (human); assay type: in vitro ADME; settings: Human being liver microsomes 0.5 mg/mL, compound 1 μM, NADPH 1 mM, 37° C.; for half-life at 1 μM: pH 7.4
Method: 1. Source of liver microsomes: human liver microsomes (Corning 452117), CD-1 mouse liver microsomes (XENOTECH M1000)
1. Formulation of 100 mM phosphate buffer solution (PBS): 7.098 g of Na2HPO4 was weighed and ultrasonically dissolved in 500 mL of pure water to form Solution A. 3.400 g of KH2PO4 was weighed and ultrasonically dissolved in 250 mL of pure water to form Solution B. Solution A was placed in a stirrer and Solution B was slowly added until the pH value reached 7.4, thus formulating 100 mM PBS buffer solution.
The reaction system was formulated according to Table 3 below.
3. The reaction system was placed in a water bath at 37° C. and pre-incubated for 10 minutes. 40 μL of 10 mM NADPH solution (NADPH was dissolved in 100 mM phosphate buffer solution) was added into the reaction system, and the final concentration of NADPH was 1 mM. 40 μL of Phosphate buffer solution was used instead of the NADPH solution as a negative control. The negative control was used to rule out the influence caused by the chemical stability of the compounds per se.
4. The reaction system was added with 4 μL of 100 μM the compound of the present disclosure and Verapamil (the positive control compound) (DMSO as the vehicle), so that the reaction was initiated. The final concentration of the compound was 1 μM.
5. At 0.5, 15, 30, 45 and 60 minutes, after being well mixed in a vortex oscillator, 50 μL of the incubated samples were taken out respectively, and the reaction was terminated with ice acetonitrile (4-fold) containing an internal standard. The samples were centrifuged at 3220 g for 45 minutes. After the centrifugation, 90 μL of the supernatants were transferred to a sample plate and mixed well with 90 μL of ultrapure water for LC-MS/MS analysis.
All data were calculated by Microsoft Excel software. Peak areas were determined from the extracted ion chromatograms. The in-vitro half-life (t1/2) of the parent drug was determined by the linear fitting of the natural logarithm of the elimination percentage of the parent drug versus time.
The in-vitro half-life (t1/2) was calculated from the slope: […]

| % Binding Rate [1] | t1/2 [2] | half-life at 1 μM [2] | Compound |
| --- | --- | --- | --- |
| 99.8%^ | 3.85 h | – | COc1ccc(-c2ccc(-c3cnc([C@H]4CC[C@H](NC(=O)OC(C)C)CC4)s3)c([S@@](=N)(=O)C3CC3)c2)cn1 (stereo in doubt) [Example 94] |
| 94% | – | > 8.33 h | CC(C)OC(=O)Nc1ccc(-c2cnc([C@H]3CC[C@H](NC(=O)OC(C)C)CC3)s2)c(P(C)(C)=O)c1 [Example 1, isopropyl trans-N-[3-dimethylphosphoryl-4-[2-[4-(isopropoxycarbonylamino)cyclohexyl]thiazol-5-yl]phenyl]carbamate] |
| 99.4%^ | – | 2.42 h | CC(C)OC(=O)Nc1ccc(-c2cnc([C@H]3CC[C@H](NC(=O)OC(C)C)CC3)s2)c(S(=O)(=O)C(C)C)c1 [Example 2, isopropyl trans-N-[4-[2-[4-(isopropoxycarbonylamino)cyclohexyl]thiazol-5-yl]-3-isopropylsulfonyl-phenyl]carbamate] |
| 97% | – | 7.95 h | CC(C)OC(=O)Nc1ccc(-c2cnc(C3CCC(NC(=O)OC(C)C)CC3)s2)c(S(=N)(=O)C(C)C)c1 (stereo not drawn) [Example 3, isopropyl trans-N-[4-[2-[4-(isopropoxycarbonylamino)cyclohexyl]thiazol-5-yl]-3-(isopropylsulfonimidoyl)phenyl]carbamate] |
| 99% | – | 4.18 h | CC(C)OC(=O)Nc1ccc(-c2cnc(C3CCC(NC(=O)OC(C)C)CC3)s2)c([S+]([O-])C(C)C)c1 (stereo not drawn) [Example 32, isopropyl trans-N-[4-[2-[4-(isopropoxycarbonylamino)cyclohexyl]thiazol-5-yl]-3-isopropylsulfinyl-phenyl]carbamate] |
| 99% | – | > 8.33 h | CC(C)OC(=O)Nc1ccc(-c2cnc([C@H]3CC[C@H](NC(=O)OC(C)C)CC3)s2)c(S(=O)(=O)C2CC2)c1 [Example 33, isopropyl trans-N-[3-cyclopropylsulfonyl-4-[2-[4-(isopropoxycarbonylamino)cyclohexyl]thiazol-5-yl]phenyl]carbamate] |
| 99% | – | 5.05 h | Cc1cc(Nc2ccc(-c3cnc([C@H]4CC[C@H](NC(=O)OC(C)C)CC4)s3)c(P3(=O)CCCC3)c2)n[nH]1 [Example 47, isopropyl trans-N-[4-[5-[4-[(5-methyl-1H-pyrazol-3-yl)amino]-2-(1-oxidophospholan-1-yl)phenyl]thiazol-2-yl]cyclohexyl]carbamate] |
| 99% | – | > 8.33 h | Cc1cc(Nc2ccc(-c3cnc([C@H]4CC[C@H](NC(=O)OC(C)C)CC4)s3)c(S(=O)(=O)C3CC3)c2)n[nH]1 [Example 48, isopropyl trans-(4-(5-(2-(cyclopropylsulfonyl)-4-((5-methyl-1H-pyrazol-3-yl)amino)phenyl)thiazol-2-yl)cyclohexyl)carbamate] |
| 97% | – | 0.933 h | Cc1cc(Nc2ccc(-c3cnc([C@H]4CC[C@H](NC(=O)OC(C)C)CC4)s3)c(S(=O)(=O)C3CC3)c2)nn1C [Example 49, isopropyl trans-(4-(5-(2-(cyclopropylsulfonyl)-4-((1,5-dimethyl-1H-pyrazol-3-yl)amino)phenyl)thiazol-2-yl)cyclohexyl)carbamate] |
| 96% | – | 7.92 h | Cc1cc(Nc2ccc(-c3cnc(C4CCC(NC(=O)OC(C)C)CC4)s3)c(S(=N)(=O)C3CC3)c2)n[nH]1 (stereo not drawn) [Example 50, isopropyl trans-N-[4-[5-[2-(cyclopropylsulfonimidoyl)-4-]((5-methyl-1H-pyrazol-3-yl)amino]phenyl]thiazol-2-yl]cyclohexyl]carbamate] |
| 95% | – | > 8.33 h | CC(C)OC(=O)N[C@H]1CC[C@H](c2ncc(-c3ccc(Nc4cn(C)nn4)cc3S(=N)(=O)C3CC3)s2)CC1 (stereo partly drawn) [Example 54] |
| 97% | – | 2.98 h | CC(C)OC(=O)N[C@H]1CC[C@H](c2ncc(-c3ccc(Nc4n[nH]c5ccccc45)cc3S(=O)(=O)C3CC3)s2)CC1 [Example 56, isopropyl trans-(4-(5-(4-((1H-indazol-3-yl)amino)-2-(cyclopropylsulfonyl)phenyl)thiazol-2-yl)cyclohexyl)carbamate] |
| 99.9%^ | – | 0.933 h | CC(C)OC(=O)N[C@H]1CC[C@H](c2ncc(-c3ccc(Nc4cc5ccccn5n4)cc3S(=O)(=O)C3CC3)s2)CC1 [Example 57, isopropyl trans-(4-(5-(2-(cyclopropylsulfonyl)-4-(pyrazolo[1,5-a]pyridin-2-ylamino)phenyl)thiazol-2-yl)cyclohexyl)carbamate] |
| 97% | – | 1.85 h | CC(C)OC(=O)N[C@H]1CC[C@H](c2ncc(-c3ccc(NC(=O)NCc4ccccc4)cc3S(=N)(=O)C3CC3)s2)CC1 (stereo partly drawn) [Example 65, isopropyl trans-(4-(5-(4-(3-benzylureido)-2-(cyclopropanesulfonimidoyl)phenyl)thiazol-2-yl)cyclohexyl)carbamate] |
| 97% | – | 3.12 h | CC(C)OC(=O)Nc1ccc(-c2cnc([C@H]3CC[C@H](NC(=O)OC(C)C)CC3)s2)c(S(=N)(=O)C2CC2)c1 (stereo partly drawn) [Example 68, isopropyl trans-N-[3-(cyclopropylsulfonimidoyl)-4-[2-[4-(isopropoxycarbonylamino)cyclohexyl]thiazol-5-yl]phenyl]carbamate] |
| 99.7%^ | – | 5.32 h | CC(C)OC(=O)NC1CCC(c2ncc(-c3ccc(Nc4ccc(F)cn4)cc3S(=N)(=O)C3CC3)s2)CC1 (stereo not drawn) [Example 81, isopropyl trans-N-[4-[5-[2-(cyclopropylsulfonimidoyl)]-4-[(5-fluoro-2-pyridyl)amino]phenyl]thiazol-2-yl]cyclohexyl]carbamate] |
| 98.8%^ | – | 6.37 h | Cc1cc(Nc2ccc(-c3cnc([C@H]4CC[C@H](NC(=O)OC(C)C)CC4)s3)c(S(=O)(=O)C3COC3)c2)n[nH]1 [Example 92, isopropyl trans-N-[4-[5-[4-[(5-methyl-1H-pyrazol-3-yl)amino]-2-(oxetan-3-ylsulfonyl)phenyl]thiazol-2-yl]cyclohexyl]carbamate] |
| 99% | – | 2.28 h | Cc1cc(Nc2ccc(-c3cnc([C@H]4CC[C@H](NC(=O)OC(C)C)CC4)s3)c(S(=N)(=O)C3CC3)c2)n(C)n1 (stereo partly drawn) [Example 98, isopropyl trans-(4-(5-(2-(cyclopropanesulfonimidoyl)-4-((1,3-dimethyl-1H-pyrazol-5-yl)amino)phenyl)thiazol-2-yl)cyclohexyl)carbamate] |
